According to ChEMBL document CHEMBL5727172, “Inhibitors of hepatitis C virus” (2019):
Several values for one entry are separate records, joined by “and”; a condition that tells them apart may be missing. Identical values can stand only once.

Assay: The internally quenched fluorogenic depsipeptide substrate Ac-DED(Edans)-EEAbuΨ[COO]ASK(Dabcyl)-NH2 and a synthetic peptide containing the hydrophobic core residues of the NS4A protein cofactor ([…]; NS4A peptide) were obtained from Anaspec, Inc. (San Jose, Calif.). Other chemicals and biochemicals were of reagent grade or better and were purchased from standard suppliers.Reactions were run at room temperature in buffer consisting of 50 mM HEPES, 40% glycerol, 0.05% Triton X-100, 10 mM DTT, and 10% DMSO. The final assay solutions contained 50 pM NS3 genotype 1 b protease or 200 pM genotype 3a protease, 20 μM NS4A peptide, and 4 μM substrate (genotype 1b) or 2 μM substrate (genotype 3a). Inhibitor concentrations varied from 100 nM to 5 pM in 3-fold dilutions, and no-inhibitor controls were included.Compound dilutions were made in DMSO at 20× final concentration. Reaction mixtures were prepared in 96-well assay plates. A solution of enzyme and NS4A peptide in assay buffer (25 μL volume with both reagents at 4× final concentration) was mixed with 45 μL assay buffer and 5 μL of either inhibitor or DMSO, and pre-incubated at room temperature for 1 hour. The reaction was started by addition of 25 μL substrate solution at 4× final concentration. […]

Row | SMILES | Ki
1 | C=CCCC[C@@H]1CCCC1(OC(=O)N[C@H](C(=O)N1C[C@H](Oc2nc3cc(OC)ccc3nc2Cl)[C@@H](CC)[C@H]1C(=O)OC(C)(C)C)C(C)(C)C)C(F)(F)F (some centres not stated) | 0.59 nM and 0.52 nM
2 | C=CCC[C@@H]1C[C@H]1OC(=O)N[C@H](C(=O)N1C[C@H](Oc2nc3cc(OC)ccc3nc2C(F)(F)C=C)[C@@H](C)[C@H]1C(=O)OC(C)(C)C)C(C)(C)C | 0.05 nM and 0.19 nM
